Assay results from PubChem BioAssay AID1963442 (Molecular Pharmacology Branch, DTP, NCI, 2024).

Test system: MPNST complex spheroid with HUVEC/MSC, growth, % test/control
Experiment: Anticancer human tumor MPNST cell line growth inhibition [Asc];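 note: compounds left on spheroids for seven days before reading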
Conditions: for IC50: curve of first compound; for viability, T/C: stronger effect = lower value; active = viability on the fitted dose curve at most 10% of control; inactive = the rest
Procedure, shortened: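 Stromal components (HUVEC and hMSC) are co-assembled with the cancer cells into multicellular spheroids. Drugs are then added singly or paired, at concentrations falling by half-log increments from a clinically achievable maximum, capped at 10 microM without known Cmax.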

[1] = second compound 0.00316 µM, first compound 0.00316 µM
[2] = second compound 0.00316 µM, first compound 0.01 µM
[3] = second compound 0.00316 µM, first compound 0.0316 µM
[4] = second compound 0.00316 µM, first compound 0.1 µM
[5] = second compound 0.00316 µM, first compound 0.316 µM
[6] = second compound 0.00316 µM, first compound 1 µM
[7] = second compound 0.01 µM, first compound 0.00316 µM
[8] = second compound 0.01 µM, first compound 0.01 µM
[9] = second compound 0.01 µM, first compound 0.0316 µM
[10] = second compound 0.01 µM, first compound 0.1 µM
[11] = second compound 0.01 µM, first compound 0.316 µM
[12] = second compound 0.01 µM, first compound 1 µM
[13] = second compound 0.0316 µM, first compound 0.00316 µM
[14] = second compound 0.0316 µM, first compound 0.01 µM
[15] = second compound 0.0316 µM, first compound 0.0316 µM
[16] = second compound 0.0316 µM, first compound 0.1 µM
[17] = second compound 0.0316 µM, first compound 0.316 µM
[18] = second compound 0.0316 µM, first compound 1 µM
[19] = second compound 0.1 µM, first compound 0.00316 µM
[20] = second compound 0.1 µM, first compound 0.01 µM
[21] = second compound 0.1 µM, first compound 0.0316 µM
[22] = second compound 0.1 µM, first compound 0.1 µM
[23] = second compound 0.1 µM, first compound 0.316 µM
[24] = second compound 0.1 µM, first compound 1 µM
[25] = second compound 0.316 µM, first compound 0.00316 µM
[26] = second compound 0.316 µM, first compound 0.01 µM
[27] = second compound 0.316 µM, first compound 0.0316 µM
[28] = second compound 0.316 µM, first compound 0.1 µM
[29] = second compound 0.316 µM, first compound 0.316 µM
[30] = second compound 0.316 µM, first compound 1 µM
[31] = second compound 1 µM, first compound 0.00316 µM
[32] = second compound 1 µM, first compound 0.01 µM
[33] = second compound 1 µM, first compound 0.0316 µM
[34] = second compound 1 µM, first compound 0.1 µM
[35] = second compound 1 µM, first compound 0.316 µM
[36] = second compound 1 µM, first compound 1 µM

CCN1CCN(Cc2ccc(Nc3ncc(F)c(-c4cc(F)c5nc(C)n(C(C)C)c5c4)n3)nc2)CC1 + CNC(C)C(=O)NC1CN(S(=O)(=O)c2cccc(S(=O)(=O)N3CCC4CCC(C(=O)NC(c5ccccc5)c5ccccc5)N4C(=O)C(NC(=O)C(C)NC)C3)c2)CCC2CCC(C(=O)NC(c3ccccc3)c3ccccc3)N2C1=O
inactive: viability, T/C [1] 80.7% | viability, T/C [2] 58.2% | viability, T/C [3] 58.9% | viability, T/C [4] 56.2% | viability, T/C [5] 51.9% | viability, T/C [6] 57.2% | viability, T/C [7] 141% | viability, T/C [8] 83.2% | viability, T/C [9] 102% | viability, T/C [10] 71.8% | viability, T/C [11] 61.2% | viability, T/C [12] 73% | viability, T/C [13] 94.5% | viability, T/C [14] 92.9% | viability, T/C [15] 106% | viability, T/C [16] 66.5% | viability, T/C [17] 72.5% | viability, T/C [18] 87.1% | viability, T/C [19] 79.7% | viability, T/C [20] 74.2% | viability, T/C [21] 75.3% | viability, T/C [22] 61.7% | viability, T/C [23] 60.7% | viability, T/C [24] 82.7% | viability, T/C [25] 86.5% | viability, T/C [26] 69.8% | viability, T/C [27] 106% | viability, T/C [28] 104% | viability, T/C [29] 71.9% | viability, T/C [30] 76.7% | viability, T/C [31] 66.6% | viability, T/C [32] 83% | viability, T/C [33] 66.4% | viability, T/C [34] 61.4% | viability, T/C [35] 73.9% | viability, T/C [36] 68.7%
> 1000 nM: IC50 (second compound 0.00316 µM) | IC50 (second compound 0.01 µM) | IC50 (second compound 0.0316 µM) | IC50 (second compound 0.1 µM) | IC50 (second compound 0.316 µM) | IC50 (second compound 1 µM)

O=C(c1ccc(F)c(F)c1Nc1ccc(I)cc1F)N1CC(O)([C@@H]2CCCCN2)C1 + CNC(C)C(=O)NC1CN(S(=O)(=O)c2cccc(S(=O)(=O)N3CCC4CCC(C(=O)NC(c5ccccc5)c5ccccc5)N4C(=O)C(NC(=O)C(C)NC)C3)c2)CCC2CCC(C(=O)NC(c3ccccc3)c3ccccc3)N2C1=O
inactive: viability, T/C [1] 71% | viability, T/C [2] 46.5% | viability, T/C [3] 82.4% | viability, T/C [4] 65.1% | viability, T/C [5] 66.1% | viability, T/C [6] 19.9% | viability, T/C [7] 107% | viability, T/C [8] 103% | viability, T/C [9] 131% | viability, T/C [10] 134% | viability, T/C [11] 108% | viability, T/C [12] 34.2% | viability, T/C [13] 108% | viability, T/C [14] 88.7% | viability, T/C [15] 110% | viability, T/C [16] 126% | viability, T/C [17] 77.6% | viability, T/C [18] 45.8% | viability, T/C [19] 86.9% | viability, T/C [20] 89.1% | viability, T/C [21] 81.6% | viability, T/C [22] 90.5% | viability, T/C [23] 97.2% | viability, T/C [24] 47% | viability, T/C [25] 69.7% | viability, T/C [26] 67.3% | viability, T/C [27] 65.5% | viability, T/C [28] 134% | viability, T/C [29] 87.7% | viability, T/C [30] 45% | viability, T/C [31] 70.1% | viability, T/C [32] 80.1% | viability, T/C [33] 105% | viability, T/C [34] 113% | viability, T/C [35] 96% | viability, T/C [36] 45.2%
472 nM: IC50 (second compound 0.00316 µM)
922 nM: IC50 (second compound 0.1 µM)
858 nM: IC50 (second compound 0.0316 µM)
892 nM: IC50 (second compound 1 µM)
868 nM: IC50 (second compound 0.316 µM)
781 nM: IC50 (second compound 0.01 µM)
